Reference: paper PMC10067842 (Scientific Reports, 2023)
Where “and” joins values, the source holds several entries; their conditions need not be identical. Identical values can stand only once. Entries after “also recorded” stand apart in the source; their conditions may differ. Like-named read-outs stand apart in the source and are kept apart here.

Tests used:
[1] = target: T1, ORF3a viroporin of SARS-CoV-2 (Severe acute respiratory syndrome coronavirus 2, UniProt P0DTC3); experiment: cell-based; settings: IC50, reversing viroporin-induced cell damage
[2] = target: T1, ORF3a viroporin of SARS-CoV-2; settings: for activity against ORF3a (ORF3a-induced cytotoxicity): cell viability assay, result in words
[3] = target: T2, ORF3a channel of SARS-CoV-2 (Severe acute respiratory syndrome coronavirus 2, UniProt P0DTC3); experiment: cell-based; settings: for IC50: whole-cell currents, current differences at −60 mV, read-out: IC50, patch-clamp
T2 sequence (P0DTC3 1-275): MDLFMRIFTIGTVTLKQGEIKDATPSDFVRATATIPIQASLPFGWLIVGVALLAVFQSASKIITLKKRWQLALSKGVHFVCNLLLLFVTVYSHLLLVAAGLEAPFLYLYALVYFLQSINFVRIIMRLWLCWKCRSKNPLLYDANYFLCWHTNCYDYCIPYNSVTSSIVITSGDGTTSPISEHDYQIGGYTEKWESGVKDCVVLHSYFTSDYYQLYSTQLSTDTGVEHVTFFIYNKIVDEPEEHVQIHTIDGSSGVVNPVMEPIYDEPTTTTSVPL

ORF3a of SARS-CoV [4] = settings: Xenopus oocytes; cited from earlier work
ORF3a of SARS-CoV [5] = settings: cited from earlier work
HCoV-OC43 = settings: cited from earlier work
SARS-CoV = settings: cited from earlier work
[6] = tested on: HEK293 cells transfected with ORF3a; type: cell-based
HEK293 cells = experiment: MTT cell viability assay of control cells transfected with empty vector; type: cell-based; settings: 5 µM and higher (> 1 µM for ECGC), 10–20 µM
[7] = current–voltage recordings, result in words

Molecule: Oc1ccc(/C=C/c2cc(O)cc(O)c2)cc1 [resveratrol]
- IC50 [1]: 6700 nM and 6730 nM
- Percentage inhibition from MTT data at the highest inhibitor concentration ([2]; Fig. 4D): 86%
- activity against ORF3a (ORF3a-induced cytotoxicity) [2]: inhibitory activity
- activity against ORF3a channel in patch-clamp [3, 7]: confirmed the inhibitory activity
- IC50 [3]: 1.5 ± 0.1 nM

Molecule: NC12CC3CC(CC(C3)C1)C2 [amantadine, reference compound]
- IC50 [1]: 43700 ± 11100 nM
- Percentage inhibition from MTT data at the highest inhibitor concentration ([2]; Fig. 4D): 78%
- IC50 [3]: 4.5 ± 0.2 nM

Molecule: O=C1C[C@@H](c2ccc(O)cc2)Oc2cc(O)cc(O)c21 [naringenin]
- activity against ORF3a (ORF3a-induced cytotoxicity) [2]: inactive
- inhibition of ORF3a activity of SARS-CoV (ORF3a of SARS-CoV [4]): do not

Molecule: O=c1c(O)c(-c2ccc(O)cc2)oc2cc(O)cc(O)c12 [kaempferol]
- IC50 [1]: 5200 nM and 5230 nM
- activity against ORF3a (ORF3a-induced cytotoxicity) [2]: inhibitory activity
- IC50 [3]: 2.4 ± 0.5 nM

Molecule: Cc1cc(O)c2c(c1)C(=O)c1cc(O)cc(O)c1C2=O [emodin]
- inhibition of ORF3a of SARS-CoV (ORF3a of SARS-CoV [5]): inhibitor
- virus release (HCoV-OC43): able to repress virus release

Molecule: COc1cc(/C=C/C(=O)CC(=O)/C=C/c2ccc(O)c(OC)c2)ccc1O [curcumin]
- Percentage inhibition from MTT data at the highest inhibitor concentration [2]: 72%
- inhibition of viral replication (SARS-CoV; SARS-CoV infected Vero E6 cells): effectively inhibited viral replication
- activity against ORF3a channel in patch-clamp [3]: confirmed the inhibitory activity

Molecule: epigallocatechin gallate [EGCG]
- morphology of ORF3a-transfected cells after treatment [6]: healthy cells with normal morphology
- effect on viability of control cells (cytotoxic or proliferative effects) (HEK293 cells): increased cell proliferation; also recorded: increased cell viability
- activity against ORF3a (ORF3a-induced cytotoxicity) [2]: inhibitory activity
- IC50 ([2]; read-out: IC50, reversing viroporin-induced cell damage): 1600 nM and 1560 nM
- activity against ORF3a channel in patch-clamp [3, 7]: confirmed the inhibitory activity
- IC50 [3]: 0.7 ± 0.1 nM

Molecule: O=c1c(O)c(-c2ccc(O)c(O)c2)oc2cc(O)cc(O)c12 [quercetin]
- effect on viability of control cells (cytotoxic or proliferative effects) (HEK293 cells): increased cell proliferation
- effect on viability of control cells (cytotoxic or proliferative effects) (HEK293 cells; listed as Quercetin): increased cell viability
- IC50 [1]: 2500 ± 200 nM
- activity against ORF3a (ORF3a-induced cytotoxicity) [2]: inhibitory activity
- activity against ORF3a channel in patch-clamp [3, 7]: confirmed the inhibitory activity
- IC50 [3]: 3.9 ± 0.7 nM

Molecule: CCCCC[C@H](O)CC(=O)CCc1ccc(O)c(OC)c1 [6-gingerol]
- morphology of ORF3a-transfected cells after treatment [6]: morphology of dying cells
- activity against ORF3a (ORF3a-induced cytotoxicity) [2]: inactive
- activity in the same expression system (SARS-CoV; Vero E6 cells): only low activity
- activity against ORF3a channel in patch-clamp [3, 7]: inactive

Molecule: CC(N)C12CC3CC(CC(C3)C1)C2 (stereo not shown) [rimantadine, reference compound]
- IC50 [1]: 4400 ± 1300 nM
- potency of rimantadine higher than that of amantadine ([2]; cell viability assays): ~ tenfold
- potency of rimantadine higher than that of amantadine ([3]; patch clamp experiments): approximately fourfold

Molecule: O=c1cc(-c2ccc(O)cc2)oc2cc(O)cc(O)c12 [apigenin]
- activity against ORF3a (ORF3a-induced cytotoxicity) [2]: inactive

Molecule: COc1ccc(-c2cc(=O)c3c(OC)c(OC)c(OC)c(OC)c3o2)cc1OC [nobiletin]
- effect on viability of control cells (cytotoxic or proliferative effects) (HEK293 cells): increased cell proliferation; also recorded: increased cell viability
- IC50 [1]: 3800 ± 900 nM
- activity against ORF3a (ORF3a-induced cytotoxicity) [2]: inhibitory activity
- activity against ORF3a (ORF3a-induced cytotoxicity) ([2]; listed as Nobiletin): potent activity
- activity against ORF3a channel in patch-clamp [3, 7]: confirmed the inhibitory activity
- IC50 [3]: 1.8 ± 0.3 nM

Molecule: O=c1c(-c2ccc(O)cc2)coc2cc(O)cc(O)c12 [genistein]
- activity against ORF3a (ORF3a-induced cytotoxicity) [2]: inactive
- inhibition of ORF3a activity of SARS-CoV (ORF3a of SARS-CoV [4]): do not
